We go through eight molecules from patent US12240844B2 (Voronoi, Inc., priority 2019, dated 2025).

Each structure is given as a SMILES string.

Usually IC50 stands for the concentration that gives 50% inhibition. Broadly, the inhibition is the relative decrease from the control value, in per cent.

Experiment [1] addresses T1, human GST-DYRK1A (full length) (Homo sapiens, UniProt Q13627).
T1 construct: purified human GST-DYRK1A (full length, Thermo scientifics) enzyme; GST; purchased Thermo scientifics
Nature of the experiment: GST-DYRK1A enzyme inhibition, ADP-Glo kinase assay. The following applies: read-out: DYRK1 IC50. It is filed as biochemical. Put shortly: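 Full-length human GST-DYRK1A (10 ng) incubated with 10 uM ATP and specific substrate for 1 h at 25° C in 40 mM Tris-HCl pH 7.4, 20 mM MgCl2, 0.5 mg/mL BSA, 50 uM DTT. ADP formation read by ADP-Glo luminescence; IC50 (nM) versus solvent control, triplicate.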

In another experiment the target is T2, human GST-CLK1 (129-end) (Homo sapiens, UniProt P49759).
T2 construct: purified human GST-CLK1 (129-end, Signalchem) enzyme; GST; purchased Signalchem
T2 sequence (P49759 129-484 limits assumed): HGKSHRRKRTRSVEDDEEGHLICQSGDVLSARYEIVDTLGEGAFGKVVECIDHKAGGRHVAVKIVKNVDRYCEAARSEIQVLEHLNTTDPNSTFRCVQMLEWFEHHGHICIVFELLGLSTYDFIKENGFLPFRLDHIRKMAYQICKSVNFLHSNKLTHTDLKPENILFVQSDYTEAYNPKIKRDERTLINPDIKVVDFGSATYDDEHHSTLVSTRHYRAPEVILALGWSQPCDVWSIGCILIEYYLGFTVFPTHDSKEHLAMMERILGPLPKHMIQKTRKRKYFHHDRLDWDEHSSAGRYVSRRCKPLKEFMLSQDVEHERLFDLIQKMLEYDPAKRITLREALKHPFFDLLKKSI
Nature of the experiment: GST-CLK1 enzyme inhibition, ADP-Glo kinase assay. Type of experiment: biochemical. The settings on record: ATP 10 uM. Put shortly: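 GST-CLK1 (129-end, 3 ng) reacted with 10 uM ATP and substrate in 40 mM Tris-HCl pH 7.4, 20 mM MgCl2, 0.5 mg/mL BSA, 50 uM DTT, 1 h at 25° C. ADP-Glo luminescence normalised to solvent control; IC50 from triplicate data.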

The subject of a further experiment is human DYRK1A and Tau. Nature of the experiment: Tau phosphorylation inhibition, ClariCELL Kinase Cell-Based Assay (Carnabio). On the procedure:
Tau phosphorylation inhibitory efficacy was measured using the ClariCELL™ Kinase Cell-Based Assay service of Carnabio, located in the United States. The compounds are exposed to human embryonic kidney ([…]) cells transiently expressing human DYRK1A and Tau, and then the cells are lysed to release cellular proteins. At this time, the released Tau is captured on a plate, and the degree of phosphorylation is quantified by ELISA using an antibody specific for Tau phosphorylation.

The target of a further experiment is LRRK2 (G2019S) (Homo sapiens, UniProt Q5S007, G2019S). Briefly: LRRK2 G2019S enzyme inhibition, ADP-Glo kinase assay. Type of experiment: biochemical. Also noted: purchased SignalChem L10-12GG. Put shortly: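 Purified human LRRK2 G2019S (16 ng) with 25 μM ATP and 0.2 μg substrate, 2 h at 25° C in 40 mM Tris-HCl pH 7.4, 20 mM MgCl2, 0.5 mg/ml BSA, 50 μM DTT; compound at 12 final concentrations from 50 μM downward. ADP-Glo luminescence versus solvent control gave IC50 (nM).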
Chain of LRRK2 (G2019S) (Q5S007 970-2527 G2019S limits assumed): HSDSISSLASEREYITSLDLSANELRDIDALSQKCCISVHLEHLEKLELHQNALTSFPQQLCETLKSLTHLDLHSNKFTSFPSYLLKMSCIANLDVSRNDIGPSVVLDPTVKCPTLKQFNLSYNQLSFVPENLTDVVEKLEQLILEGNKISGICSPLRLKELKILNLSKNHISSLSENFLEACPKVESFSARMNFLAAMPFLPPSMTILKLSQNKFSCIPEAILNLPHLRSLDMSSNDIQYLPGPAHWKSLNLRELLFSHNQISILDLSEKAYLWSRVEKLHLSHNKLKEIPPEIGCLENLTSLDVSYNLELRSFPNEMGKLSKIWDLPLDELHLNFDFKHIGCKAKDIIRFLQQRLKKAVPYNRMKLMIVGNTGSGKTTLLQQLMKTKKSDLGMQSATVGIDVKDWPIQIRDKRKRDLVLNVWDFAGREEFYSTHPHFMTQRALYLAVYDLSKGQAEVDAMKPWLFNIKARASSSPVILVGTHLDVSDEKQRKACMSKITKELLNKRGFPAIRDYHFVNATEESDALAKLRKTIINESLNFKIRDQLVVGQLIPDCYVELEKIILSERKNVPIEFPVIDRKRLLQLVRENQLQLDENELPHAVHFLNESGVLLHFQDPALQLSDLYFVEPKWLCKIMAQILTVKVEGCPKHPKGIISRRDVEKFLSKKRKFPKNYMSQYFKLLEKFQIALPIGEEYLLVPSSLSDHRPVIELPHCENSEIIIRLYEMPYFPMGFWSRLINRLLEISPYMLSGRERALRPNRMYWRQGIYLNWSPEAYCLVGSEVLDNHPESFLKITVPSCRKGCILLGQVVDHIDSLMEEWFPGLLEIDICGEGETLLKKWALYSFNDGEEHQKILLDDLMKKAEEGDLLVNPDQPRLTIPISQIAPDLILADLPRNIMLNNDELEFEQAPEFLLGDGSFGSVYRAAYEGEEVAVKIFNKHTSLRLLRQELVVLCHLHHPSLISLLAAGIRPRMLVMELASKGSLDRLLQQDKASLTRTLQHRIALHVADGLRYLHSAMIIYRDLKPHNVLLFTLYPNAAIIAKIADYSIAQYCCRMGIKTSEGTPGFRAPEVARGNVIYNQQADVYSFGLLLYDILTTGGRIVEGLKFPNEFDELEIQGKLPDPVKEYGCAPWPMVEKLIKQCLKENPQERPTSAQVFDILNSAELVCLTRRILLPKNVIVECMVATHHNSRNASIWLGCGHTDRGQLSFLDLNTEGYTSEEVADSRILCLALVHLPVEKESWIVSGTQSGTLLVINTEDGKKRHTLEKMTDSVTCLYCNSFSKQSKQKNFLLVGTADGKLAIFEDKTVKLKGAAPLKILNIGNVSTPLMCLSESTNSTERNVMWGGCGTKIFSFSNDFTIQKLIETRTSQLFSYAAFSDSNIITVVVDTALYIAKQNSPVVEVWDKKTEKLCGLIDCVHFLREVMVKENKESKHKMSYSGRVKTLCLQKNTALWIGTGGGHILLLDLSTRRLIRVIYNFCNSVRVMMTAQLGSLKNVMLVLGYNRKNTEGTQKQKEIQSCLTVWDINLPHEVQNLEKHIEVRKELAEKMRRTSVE
A general note: In ADP-Glo the light output rises with the ADP produced.

The target in the next experiment is LRRK2 (Homo sapiens, UniProt Q5S007). Nature of the experiment: LRRK2 enzyme inhibition, ADP-Glo kinase assay. More on the design: purchased Invitrogen PR8604B. It is filed as biochemical. Put shortly:
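Purified human LRRK2 (25 ng) in 40 mM Tris-HCl pH7.4, 20 mM MgCl2, 0.5 mg/ml BSA, 50 μM DTT with 10 μM ATP and substrate ([…]), 2 h at 25° C. Final compound 50 to 0.000001024 μM, 12-point dilution. ADP-Glo luminescence vs solvent control; IC50 (nM).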

Chain of LRRK2 (Q5S007 970-2527 limits assumed): as the sequence (Q5S007 970-2527 G2019S limits assumed) above, with S1050G counted along it

As to `CCNc1cc(Nc2ccc(C(=O)N3CCN(C4CC4)CC3)c3c2OCC3)nc2[nH]cc(C(F)(F)F)c12` [Example 250, (4-cyclopropylpipe razin-1-yl)(7-((4-(ethylamino)-3-(trifluoromethyl)-1H-pyrrolo[2,3-b]pyridin-6-yl)amino)-2,3-dihydrobenzofuran-4-yl)methanone], the IC50 in experiment [1] was 101 to 300 nM. The molecule also came in with an IC50 against human GST-CLK1 (129-end) of less than 100 nM. In the experiment on human DYRK1A and Tau, the inhibition at 0.25 µM was 34%, the inhibition at 0.5 µM turned out to be 59.8% and the inhibition at 1 µM amounted to 82.8%. Further, the IC50 against LRRK2 (G2019S) fell in the range of 101 to 300 nM.
Turning to `C=CCNc1cc(Nc2ccc(C(=O)N3CCC(N4CCOCC4)CC3)c3c2OCC3)nc2[nH]cc(C(F)(F)F)c12` [Example 255, (7-((4-(allylamino)-3-(trifluoromethyl)-1H-pyrrolo[2,3-b]pyridin-6-yl)amino)-2,3-dihydrobenzofuran-4-yl)(4-morpholinopiperidin-1-yl)methanone], the IC50 in experiment [1] is less than 100 nM. Also, the IC50 at human GST-CLK1 (129-end) was less than 100 nM. In the experiment with human DYRK1A and Tau, the inhibition at 0.25 µM came to 47.7%, the inhibition at 0.5 µM came to 89.2% and the inhibition at 1 µM was 104%. On LRRK2 (G2019S), this molecule came in with an IC50 of less than 100 nM.
In the case of `CS(=O)(=O)CCNc1cc(Nc2ccc(C(=O)N3CCOCC3)c3c2OCCO3)nc2[nH]cc(C#N)c12` [Example 110, 4-((2-(methylsulfonyl)ethyl)amino)-6-((8-(morpholine-4-carbonyl)-2,3-dihydrobenzo[b] [1,4]dioxin-5-yl)amino)-1H-pyrrolo[2,3-b]pyridine-3-carbonitrile], the IC50 was 301 to 1000 nM in experiment [1], 101 to 300 nM on human GST-CLK1 (129-end), less than 100 nM on LRRK2 and less than 100 nM at LRRK2 (G2019S).
Consider `COc1cc(S(=O)(=O)N2CCOCC2)ccc1Nc1cc(NC2CCCCC2)c2c(Cl)c[nH]c2n1` [Example 70, 3-chloro-N^4-cyclohexyl-N^6-(2-methoxy-4-(morpholinosulfonyl)phenyl)-1H-pyrrolo[2,3-b]pyridine-4,6-diamine], for which the half-maximal inhibitory concentration (IC50) (in experiment [1]; against human GST-CLK1 (129-end); at LRRK2; against LRRK2 (G2019S)) was 301 to 1000 nM throughout.
In the case of `COc1cc(S(C)(=O)=O)ccc1Nc1cc(NC2CC2)c2c(C(F)(F)F)c[nH]c2n1` [Example 187, N^4-cyclopropyl-N^6-(2-methoxy-4-(methylsulfonyl)phenyl)-3-(trifluoromethyl)-1H-pyrrolo[2,3-b]pyridine-4,6-diamine], the IC50 (in experiment [1]; against human GST-CLK1 (129-end); against LRRK2; on LRRK2 (G2019S)) was 301 to 1000 nM each time.
`CCCNc1cc(Nc2ccc(S(C)(=O)=O)cc2OC)nc2[nH]cc(C#N)c12` [Example 125, 6-((2-methoxy-4-(methylsulfonyl)phenyl)amino)-4-(propylamino)-1H-pyrrolo[2,3-b]pyridine-3-carbonitrile]: the IC50 in experiment [1] is 301 to 1000 nM; on human GST-CLK1 (129-end), 301 to 1000 nM; against LRRK2, less than 100 nM; against LRRK2 (G2019S) it was 101 to 300 nM.
As to `CCNc1cc(Nc2ccc(P(C)(=O)N3CCC(N4CCOCC4)CC3)cc2OC)nc2[nH]cc(C(F)(F)F)c12` (stereo not drawn) [Example 208, (4-((4-(ethylamino)-3-(trifluoromethyl)-1H-pyrrolo[2,3-b]pyridin-6-yl)amino)-3-methoxyphenyl) (methyl)(4-morpholinopiperidin-1-yl)phosphine oxide], the half-inhibitory concentration (IC50) in experiment [1] is 101 to 300 nM; at human GST-CLK1 (129-end) it was less than 100 nM; at LRRK2, less than 100 nM; against LRRK2 (G2019S), less than 100 nM.
Turning to `CCNc1cc(Nc2ccc(C(=O)N3CCC(N4CCOCC4)CC3)c3c2OCCO3)nc2[nH]cc(C#N)c12` [Example 113, 4-(ethylamino)-6-((8-(4-morpholinopiperidine-1-carbonyl)-2,3-dihydrobenzo [b] [1,4]dioxin-5-yl)amino)-1H-pyrrolo[2,3-b]pyridine-3-carbonitrile], the IC50 in experiment [1] was 301 to 1000 nM; against human GST-CLK1 (129-end), less than 100 nM; on LRRK2 it was less than 100 nM; against LRRK2 (G2019S), less than 100 nM.
